Measured values reported in US20230285441A1, “TREATMENT OF C[…] AURANOFIN” (GEORGIA STATE UNIVERSITY RESEARCH FOUNDATION, INC., priority 2020, published 2023).

Legend:
[1] = system: SARS-CoV-2 (USA-WA1/2020); experiment: SARS-CoV-2 infectivity titers in cell culture supernatants by plaque assay; type: cell-based; conditions: 4 µM auranofin, Huh7 cells, 48 hours after infection
[2] = system: Huh7 cells; conditions: 0.1-10 µM for 48 hours, trypan blue
[3] = system: IL-6, IL-1β, TNFα and NF-kB; experiment: mRNA expression of SARS-CoV-2-induced cytokines in Huh7 cells by qRT-PCR; type: cell-based, human
[4] = 4 µM auranofin, SARS-CoV-2 infected Huh7 cells

SMILES: CC[P](CC)(CC)=[Au][S][C@@H]1OC(COC(C)=O)[C@@H](OC(C)=O)C(OC(C)=O)C1OC(C)=O (stereo partly drawn) [auranofin, 1-Thio-β-D-glucopyranosatotriethylphosphine gold-2,3,4,6-tetraacetate]
- SARS-COV-2 infectivity titers in cell culture supernatants [1]: significantly reduced
- cytotoxic concentration of 50% [2]: approximately 5.7 µM
- increase in TNF-α levels (mRNA) [3]: absent
- increase in the expression of IL-1β (mRNA) [3, 4]: no increase
- increase in the expression of NF-kB (mRNA) [3, 4]: no increase
